Patent US20100003246A1, “Novel heterocyclic compounds and uses therof” (priority 2008, published 2010)

molecular target: T1, b-Raf(V600E) (Homo sapiens, UniProt P15056, V600E); experiment: Raf/Mek Amplified Luminescence Proximity Homogeneous Assay (Alpha Screen), b-Raf(V600E); type: biochemical; conditions: mutant b-Raf(V600E), read-out: mut-b-RAF (IC50 in uM)
T1 construct: made in house
Summary of the method: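 IC50 derived by non-linear regression from AlphaScreen luminescence of phospho-MEK (anti-p-MEK antibody). Reaction: ~4 pM b-Raf(V600E), ~10 nM kinase-dead biotinylated Mek, 60 min compound pre-incubation, then 3 h with ATP at room temperature in pH 7.5 Tris/MgCl2/DTT buffer, quenched with EDTA.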

T1 sequence (P15056 whole entry V600E): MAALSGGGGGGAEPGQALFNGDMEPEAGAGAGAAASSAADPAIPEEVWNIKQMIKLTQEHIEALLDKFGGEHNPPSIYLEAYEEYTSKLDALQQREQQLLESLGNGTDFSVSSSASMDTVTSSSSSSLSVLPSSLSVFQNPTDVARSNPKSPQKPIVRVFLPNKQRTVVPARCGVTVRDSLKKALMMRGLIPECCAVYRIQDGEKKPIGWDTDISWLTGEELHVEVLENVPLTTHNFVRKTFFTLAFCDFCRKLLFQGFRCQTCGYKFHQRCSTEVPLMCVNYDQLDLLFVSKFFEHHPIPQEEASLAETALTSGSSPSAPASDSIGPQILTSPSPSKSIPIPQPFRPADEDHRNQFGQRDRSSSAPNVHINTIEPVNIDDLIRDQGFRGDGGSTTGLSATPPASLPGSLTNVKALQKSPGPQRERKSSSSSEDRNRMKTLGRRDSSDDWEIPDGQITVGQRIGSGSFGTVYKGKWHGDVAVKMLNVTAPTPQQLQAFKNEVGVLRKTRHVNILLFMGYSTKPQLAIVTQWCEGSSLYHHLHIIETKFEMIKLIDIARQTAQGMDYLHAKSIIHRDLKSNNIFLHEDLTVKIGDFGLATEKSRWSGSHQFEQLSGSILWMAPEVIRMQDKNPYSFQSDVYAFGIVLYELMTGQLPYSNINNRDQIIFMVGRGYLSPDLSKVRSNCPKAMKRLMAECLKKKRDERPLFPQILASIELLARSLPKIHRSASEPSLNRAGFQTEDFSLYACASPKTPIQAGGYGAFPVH

Row | SMILES | IC50 [nM]
1 | COc1cc(-c2nc(-c3ccccc3)[nH]c2-c2ccnc(NC[C@H](C)O)n2)cnc1N [Compound 74, (S)-1-(4-(4-(6-amino-5-methoxypyridin-3-yl)-2-phenyl-1H-imidazol-5-yl)pyrimidin-2-ylamino)propan-2-ol] | 0.6
2 | CC(=O)c1cc(-c2[nH]c(-c3ccc(F)cc3)nc2-c2ccncc2)cnc1N [Compound 177, 1-(2-amino-5-(2-(4-fluorophenyl)-4-(pyridin-4-yl)-1H-imidazol-5-yl)pyridin-3-yl)ethanone] | 3
3 | COCC(=O)N[C@@H](C)CNc1nccc(-c2oc(-c3ccc(C(F)(F)F)cc3)nc2-c2cnc(N)c(OC)c2)n1 [Example 14] | 3
4 | COc1cc(-c2nc(-c3cc(F)cc(F)c3)[nH]c2-c2ccncc2)cnc1N [Compound 78, 5-(2-(3,5-difluorophenyl)-5-(pyridin-4-yl)-1H-imidazol-4-yl)-3-methoxypyridin-2-amine] | 1
5 | COCC(=O)N[C@@H](C)CNc1nccc(-c2[nH]c(C3CC3)nc2-c2nc(OC)c(N)nc2C)n1 [Compound 255, (S)-N-(1-(4-(4-(5-amino-6-methoxy-3-methylpyrazin-2-yl)-2-cyclopropyl-1H-imidazol-5-yl)pyrimidin-2-ylamino)propan-2-yl)-2-methoxyacetamide] | 3.9
6 | COc1cc(-c2[nH]c(-c3ccc(C(F)(F)F)cc3)nc2-c2ccncc2)cnc1N [Example 2, 3-methoxy-5-(5-(pyridine-4-yl)-2-(4-(trifluoromethyl)phenyl)-1H-imidazol-4-yl)pyridin-2-amine] | 0.4
7 | COc1cc(-c2[nH]c(-c3ccc(C)c(F)c3)nc2-c2ccncc2)cnc1N [Compound 117, 5-(2-(3-fluoro-4-methylphenyl)-4-(pyridin-4-yl)-1H-imidazol-5-yl)-3-methoxypyridin-2-amine] | 0.7
8 | COc1cc(-c2nc(C3=CCNCC3)[nH]c2-c2ccncc2)cnc1N [Compound 155, 3-methoxy-5-(5-(pyridin-4-yl)-2-(1,2,3,6-tetrahydropyridin-4-yl)-1H-imidazol-4-yl)pyridin-2-amine] | 16.2
9 | COc1nc(-c2nc(-c3ccc(C(F)(F)F)cc3)oc2-c2ccnc(NCC(C)C)n2)cnc1N [Compound 223, 4-(4-(5-amino-6-methoxypyrazin-2-yl)-2-(4-(trifluoromethyl)phenyl)oxazol-5-yl)-N-isobutylpyrimidin-2-amine] | 11
10 | Fc1ccc(-c2nc(-c3ccncc3)c(-c3cnc4[nH]cc(Cl)c4c3)[nH]2)cc1 [Example 12, 3-chloro-5-(2-(4-fluorophenyl)-4-(pyridine-4-yl)-1H-imidazol-5-yl)-1H-pyrrolo[2,3-b]pyridine] | 2
11 | Fc1ccc(-c2nc(-c3ccncc3)c(-c3cnc4c(c3)OCCN4)[nH]2)cc1 [Compound 142, 7-(2-(4-fluorophenyl)-4-(pyridin-4-yl)-1H-imidazol-5-yl)-3,4-dihydro-2H-pyrido[3,2-v][1,4]oxazine] | 382
12 | COc1cc(-c2nc(C3=CCOCC3)[nH]c2-c2ccncc2)cnc1N [Compound 154, 5-(2-(3,6-dihydro-2H-pyran-4-yl)-5-(pyridin-4-yl)-1H-imidazol-4-yl)-3-methoxypyridin-2-amine] | 3.3
13 | COc1cc(-c2nc(C(C)(C)C)[nH]c2-c2ccnc(N)n2)cnc1N [Compound 201, 4-(4-(6-amino-5-methoxypyridin-3-yl)-2-tert-butyl-1H-imidazol-5-yl)pyrimidin-2-amine] | 0.5
14 | COc1cc(-c2[nH]c(-c3ccc(F)c(F)c3)nc2-c2ccncc2)cnc1N [Compound 109, 5-(2-(3,4-difluorophenyl)-4-(pyridin-4-yl)-1H-imidazol-5-yl)-3-methoxypyridin-2-amine] | 1.2
15 | COc1ccc(-c2nc(-c3ccncc3)c(-c3cnc(N)c(OC)c3)[nH]2)cc1F [Compound 108, 5-(2-(3-fluoro-4-methoxyphenyl)-4-(pyridin-4-yl)-1H-imidazo-5-yl)-3-methoxypyridin-2-amine] | 0.7
16 | COc1cc(-c2nc(-c3ccc(C(F)(F)F)cc3)oc2-c2ccnc(NCC(C)C)c2)cnc1N [Compound 232, 4-(4-(6-amino-5-methoxypyridin-3-yl)-2-(4-(trifluoromethyl)phenyl)-oxazol-5-yl)-N-isobutylpyridin-2-amine] | 8.4
17 | COc1cc(-c2nc(-c3ccc(F)cc3)[nH]c2-c2ccnc(NCC(C)C)n2)cnc1N [Compound 159, 4-(4-(6-amino-5-methoxypyridin-3-yl)-2-(4-fluorophenyl)-1H-imidazol-5-yl)-N-isobutylpyrimidin-2-amine] | 1.5
18 | COc1cc(-c2[nH]c(-c3cccc(S(C)(=O)=O)c3)nc2-c2ccncc2)cnc1N [Compound 120, 3-methoxy-5-(2-(3-(methylsulfonyl)phenyl)-4-(pyridin-4-yl)-1H-imidazol-5-yl)pyridin-2-amine] | 8.8
19 | COc1cc(-c2nc(-c3ccccc3)[nH]c2-c2ccnc(NCCO)n2)cnc1N [Example 3, 2-(4-(4-(6-amino-5-methoxypyridin-3-yl)-2-phenyl-1H-imidazol-5-yl)pyrimidin-2-ylamino)ethanol] | 1.3
20 | COc1cc(-c2nc(C(C)(C)C)[nH]c2-c2ccncc2)cnc1N [Compound 128, 5-(2-tert-butyl-5-(pyridin-4-yl)-1H-imidazol-4-yl)-3-methoxypyridin-2-amine] | 1
21 | COc1cc(-c2nc(C3=CCCC3)[nH]c2-c2ccncc2)cnc1N [Compound 127, 5-(2-cyclopentenyl-5-(pyridin-4-yl)-1H-imidazol-4-yl)-3-methoxypyridin-2-amine] | 1.8
22 | CCOC(=O)N[C@@H](C)CNc1nccc(-c2[nH]c(C(C)(C)C)nc2-c2nc(OC)c(N)nc2C)n1 [Compound 256, (S)-ethyl 1-(4-(4-(5-amino-6-methoxy-3-methylpyrazin-2-yl)-2-tert-butyl-1H-imidazol-5-yl)pyrimidin-2-ylamino)propan-2-ylcarbamate] | 1.1
23 | COc1nc(-c2oc(-c3ccccc3)nc2-c2ccncc2)cnc1N [Compound 90, 3-methoxy-5-(2-phenyl-4-(pyridin-4-yl)oxazol-5-yl)pyrazin-2-amine] | 113
24 | COc1nc(-c2[nH]c(C)nc2-c2ccncc2)cnc1N [Compound 50, 3-methoxy-5-(2-methyl-4-(pyridin-4-yl)-1H-imidazol-5-yl)pyrazin-2-amine] | 259

These reach a lower IC50. Values come first.

Row | IC50 [nM] | SMILES
25 | 0.3 | COc1cc(-c2ccc(S(=O)(=O)N3CCC[C@@H](Nc4nccc(-c5nc(-c6ccccc6)[nH]c5-c5cnc(N)c(OC)c5)n4)C3)cc2)cnc1N [Compound 64, (R)-4-(5-(6-amino-5-methoxypyridin-3-yl)-2-phenyl-1H-imidazol-4-yl)-N-(1-(4-(6-amino-5-methoxypyridin-3-yl)phenylsulfonyl)piperidin-3-yl)pyrimidin-2-amine]
26 | 0.04 | COC(=O)N[C@@H](C)CNc1nccc(-c2[nH]c(C3(C)CC3)nc2-c2cnc(N)c(OC)n2)n1 [Compound 251, (S)-methyl 1-(4-(4-(5-amino-6-methoxypyrazin-2-yl)-2-(1-methylcyclopropyl)-1H-imidazol-5-yl)pyrimidin-2-ylamino)propan-2-ylcarbamate]
27 | 0.1 | COC(=O)N[C@@H](C)CNc1nccc(-c2[nH]c(C(C)(C)C)nc2-c2cnc(N)c(OC)n2)n1 [Example 8, (S)-methyl 1-(4-(4-(5-amino-6-methoxypyrazin-2-yl)-2-tert-butyl-1H-imidazol-5-yl)pyrimidin-2-ylamino)propan-2-ylcarbamate]
28 | 0.2 | COc1cc(-c2nc(-c3ccc(F)cc3)[nH]c2-c2ccnc(NC[C@H](C)NC(=O)[C@@H](C)OC)n2)cnc1N [Compound 196, (R)-N-((S)-1-(4-(4-(6-amino-5-methoxypyridin-3-yl)-2-(4-fluorophenyl)-1H-imidazol-5-yl)pyrimidin-2-ylamino)propan-2-yl)-2-methoxypropanamide]
29 | 0.2 | COc1cc(-c2nc(C(C)(C)C)[nH]c2-c2ccnc(Nc3ccc(C(F)(F)F)cc3)n2)cnc1N [Compound 221, 4-(4-(6-amino-5-methoxypyridin-3-yl)-2-tert-butyl-1H-imidazol-5-yl)-N-(4-(trifluoromethyl)phenyl)-pyrimidin-2-amine]
30 | 0.2 | COCC(=O)N[C@@H](C)CNc1nccc(-c2[nH]c(-c3ccc(F)cc3)nc2-c2cnc(N)c(OC)n2)n1 [Example 5, (S)—N-(1-(4-(4-(5-amino-6-methoxylpyrazin-2-yl)-2-(4-fluorophenyl)-1H-imidazol-5-yl)pyrimidin-2-ylamino)propan-2-yl)-2-methoxyacetamide]
31 | 0.3 | COCC(=O)N[C@@H](C)CNc1nccc(-c2[nH]c(C(C)C)nc2-c2cnc(N)c(OC)n2)n1 [Compound 227, (S)-N-(1-(4-(4-(5-amino-6-methoxypyrazin-2-yl)-2-isopropyl-1H-imidazol-5-yl)pyrimidin-2-ylamino)propan-2-yl)-2-methoxyacetamide]
32 | 0.1 | COCC(=O)N[C@@H](C)CNc1nccc(-c2[nH]c(-c3ccc(C(F)(F)F)cc3F)nc2-c2cnc(N)c(OC)n2)n1 [Compound 247, (S)-N-(1-(4-(4-(5-amino-6-methoxypyrazin-2-yl)-2-(2-fluoro-4-(trifluoromethyl)phenyl)-1H-imidazol-5-yl)pyrimidin-2-ylamino)propan-2-yl)-2-methoxyacetamide]
33 | 0.3 | COc1cc(-c2[nH]c(-c3ccc(O)cc3)nc2-c2ccncc2)cnc1N [Compound 71, 4-(5-(6-amino-5-methoxypyridin-3-yl)-4-(pyridin-4-yl)-1H-imidazol-2-yl)phenol]
34 | 0.1 | COc1nc(-c2nc(C(C)(C)C)[nH]c2-c2ccnc(NC[C@H](C)NC(=O)OC(C)C)n2)cnc1N [Compound 237, (S)-isopropyl 1-(4-(4-(5-amino-6-methoxypyrazin-2-yl)-2-tert-butyl-1H-imidazol-5-yl)pyrimidin-2-ylamino)propan-2-ylcarbamate]
